How the values were obtained:
Bile acid receptor [1] = biological target: T1, Bile acid receptor (Homo sapiens, UniProt Q96RI1); test: Agonist activity at human FXR expressed in Escherichia coli BL21 (DE3) assessed as effect on europium labeled SRC-1 peptide recruitment by HTRF assay
T1 sequence (Q96RI1 whole entry): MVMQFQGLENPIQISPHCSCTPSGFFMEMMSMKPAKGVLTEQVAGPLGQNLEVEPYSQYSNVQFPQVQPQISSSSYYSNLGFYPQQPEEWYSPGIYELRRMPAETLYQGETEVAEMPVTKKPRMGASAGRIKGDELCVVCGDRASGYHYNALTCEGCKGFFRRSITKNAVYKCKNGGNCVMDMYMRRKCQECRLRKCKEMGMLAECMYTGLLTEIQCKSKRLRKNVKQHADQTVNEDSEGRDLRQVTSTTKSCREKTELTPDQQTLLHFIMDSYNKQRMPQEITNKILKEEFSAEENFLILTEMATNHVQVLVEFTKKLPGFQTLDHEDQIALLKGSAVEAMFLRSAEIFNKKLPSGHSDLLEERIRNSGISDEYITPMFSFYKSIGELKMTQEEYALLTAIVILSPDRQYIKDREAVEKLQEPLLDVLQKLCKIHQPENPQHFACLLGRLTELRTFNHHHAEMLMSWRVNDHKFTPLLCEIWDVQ

[2] = biological target: T2, G-protein coupled bile acid receptor 1 (Homo sapiens, UniProt Q8TDU6); test: Agonist activity at TGR5 in human HEK293 cells incubated for 30 mins; assay type: cell-based
T2 sequence (Q8TDU6 whole entry): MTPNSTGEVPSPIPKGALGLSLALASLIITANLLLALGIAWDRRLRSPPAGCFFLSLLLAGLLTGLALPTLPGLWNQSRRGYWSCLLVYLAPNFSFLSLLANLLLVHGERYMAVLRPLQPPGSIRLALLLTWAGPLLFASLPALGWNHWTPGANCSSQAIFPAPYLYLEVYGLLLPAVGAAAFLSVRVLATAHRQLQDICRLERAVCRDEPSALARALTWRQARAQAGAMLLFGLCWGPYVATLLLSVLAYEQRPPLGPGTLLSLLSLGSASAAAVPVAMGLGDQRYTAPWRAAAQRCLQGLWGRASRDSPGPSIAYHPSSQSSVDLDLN

Bile acid receptor [3] = biological target: T1, Bile acid receptor; test: Antagonist activity at FXR (unknown origin) by HTFR assay
Bile acid receptor [4] = biological target: T1, Bile acid receptor; test: Antagonist activity at FXR in human HepG2 cells; assay type: cell-based
Bile acid receptor [5] = biological target: T1, Bile acid receptor; test: Agonist activity at FXR (unknown origin) by FRET assay
Bile acid receptor [6] = biological target: T1, Bile acid receptor; test: Agonist activity at GAL4-fused N-terminal GST tagged human FXR LBD expressed in human HEK293 cells by one hybrid reporter assay; assay type: cell-based
[7] = Permeability of compound by PAMPA assay; assay type: ADME
[8] = Toxicity in DIO mouse assessed as reduction in total cholesterol level at 30 mg/kg per day administered for 4 weeks; assay type: organism-based; parameters: scale not given: the % may be the effect or the level left; conditions: in vivo, 672 h
[9] = Toxicity in DIO mouse assessed as plasma triglycerides at 30 mg/kg per day administered for 4 weeks; assay type: organism-based; conditions: in vivo, 672 h
[10] = biological target: T2, G-protein coupled bile acid receptor 1; test: Agonist activity at TGR5 in human T-lymphocyte cells assessed as increase in cAMP production; assay type: cell-based
[11] = In vivo agonist activity at TGR5 in streptozotocin-induced diabetic hamster model assessed as increase in oxygen consumption at 20 mg/kg, po bid administered for 2 weeks by oral glucose tolerance test relative to control; assay type: functional, Cricetulus griseus
[12] = In vivo agonist activity at TGR5 in streptozotocin-induced diabetic hamster model assessed as reduction in glucose excursion at 38 mg/kg, po by oral glucose tolerance test relative to control; assay type: functional, Cricetulus griseus; parameters: scale not given: the % may be the effect or the level left
[13] = In vivo agonist activity at TGR5 in streptozotocin-induced diabetic hamster model assessed as increase in HDL level at 20 mg/kg, po bid administered for 2 weeks by oral glucose tolerance test relative to control; assay type: functional, Cricetulus griseus
[14] = In vivo agonist activity at TGR5 in streptozotocin-induced diabetic hamster model assessed as decrease in plasma triglyceride at 20 mg/kg, po bid administered for 2 weeks by oral glucose tolerance test relative to control; assay type: functional, Cricetulus griseus; parameters: scale not given: the % may be the effect or the level left
[15] = In vivo agonist activity at TGR5 in streptozotocin-induced diabetic hamster model assessed as increase in insulin secretion at 20 mg/kg, po bid administered for 2 weeks by oral glucose tolerance test relative to control; assay type: functional, Cricetulus griseus
[16] = In vivo agonist activity at TGR5 in streptozotocin-induced diabetic hamster model assessed as reduction in body weight at 20 mg/kg, po bid administered for 2 weeks by oral glucose tolerance test relative to control; assay type: functional, Cricetulus griseus; parameters: scale not given: the % may be the effect or the level left
[17] = biological target: T3, G-protein coupled bile acid receptor 1 (Homo sapiens) (UniProt Q8TDU6); test: Agonist activity at human TGR5 transfected in human NCI-H716 cells assessed as fold increase in GLP-1 secretion; assay type: cell-based; conditions: filed as agonist
T3 sequence (whole entry): T2 sequence (Q8TDU6 whole entry)

[18] = In vivo agonist activity at TGR5 in streptozotocin-induced diabetic hamster model assessed as decrease in LDL level at 20 mg/kg, po bid administered for 2 weeks by oral glucose tolerance test relative to control; parameters: scale not given: the % may be the effect or the level left; conditions: Cricetulus griseus
[19] = In vivo agonist activity at TGR5 in streptozotocin-induced diabetic hamster model assessed as decrease in non-HDL level at 20 mg/kg, po bid administered for 2 weeks by oral glucose tolerance test relative to control; parameters: scale not given: the % may be the effect or the level left; conditions: Cricetulus griseus
[20] = In vivo agonist activity at TGR5 in streptozotocin-induced diabetic hamster model assessed as increase in HDL/LDL ratio at 20 mg/kg, po bid administered for 2 weeks by oral glucose tolerance test relative to control

In the case of `CC(C)c1onc(-c2c(Cl)cccc2Cl)c1COc1ccc2c(ccn2Cc2ccc(-c3nnn[nH]3)cc2)c1`, the EC50 (Bile acid receptor [1]) is reported as less than 100 nM.
For `COc1ccc(Cc2nnc(SCc3c(F)cccc3Cl)n2-c2ccc(F)cc2F)cc1OC`, the EC50 [2] was less than 100 nM.
For `O=C(O)c1ccccc1-c1ccc(Cn2ccc(OCc3c(-c4ccccc4Cl)noc3-c3cccs3)n2)cc1`, the IC50 (Bile acid receptor [3]) was 10000 nM and the IC50 (Bile acid receptor [4]) was 12200 nM.
In the case of `CC(C)n1nc(C(=O)O)cc1[C@H]1C[C@](O)(c2ccc(OCc3c(-c4c(Cl)cccc4Cl)noc3C3CC3)cc2Cl)C1`, the EC50 (Bile acid receptor [5]) is reported as less than 25 nM, the EC50 (Bile acid receptor [6]) is reported as 10 nM and the permeability [7] is reported as 46.1%.
Compound `O=C(O)c1ccc(C2CC2c2ccc(OCc3c(-c4c(Cl)cccc4Cl)noc3C3CC3)cc2Cl)cc1` (stereo unspecified) has an Activity [8] of 70%, an EC50 (Bile acid receptor [6]) of 10 nM and an Activity [9] of 50%.
`CS(=O)(=O)c1ccc(CC2CCC(c3c(C(=O)N4CCC(c5ccc(F)cc5)C4)cnn3-c3ccc(F)cc3)CC2)cc1` (stereo unspecified) showed an EC50 [10] of 7 nM.
In the case of `CN(C(=O)c1c(-c2ccc(F)cc2)nc2ncccn12)c1ccc(Cl)cc1`, the Activity [11] is reported as 7.9%, the Activity [12] is reported as 39% and the Activity [13] is reported as 7%. It also gave an Activity [14] of 43%, an Activity [15] of 80% and an Activity [16] of 5.2%. It also gave a fold change (FC) [17] of 3.7, an Activity [18] of 14% and an Activity [19] of 24%. It also gave an Activity [20] of 24%.

Source: ChEMBL document CHEMBL5247574, “Recent Progress on Bile Acid Receptor Modulators for Treatment of Metabolic Diseases” (J Med Chem, 2016)
